Data from patent US11149022B2, “Antagonists of the muscarinic acetylcholine receptor M4” (Vanderbilt University, priority 2017, dated 2021).

Target: T1, Human M4 (Homo sapiens, UniProt P08173)
T1 construct: expressed in transfected cells; host or cells: CHO-K1 (ATCC), stably co-expressing chimeric G protein Gqi5
T1 sequence (P08173 1-479): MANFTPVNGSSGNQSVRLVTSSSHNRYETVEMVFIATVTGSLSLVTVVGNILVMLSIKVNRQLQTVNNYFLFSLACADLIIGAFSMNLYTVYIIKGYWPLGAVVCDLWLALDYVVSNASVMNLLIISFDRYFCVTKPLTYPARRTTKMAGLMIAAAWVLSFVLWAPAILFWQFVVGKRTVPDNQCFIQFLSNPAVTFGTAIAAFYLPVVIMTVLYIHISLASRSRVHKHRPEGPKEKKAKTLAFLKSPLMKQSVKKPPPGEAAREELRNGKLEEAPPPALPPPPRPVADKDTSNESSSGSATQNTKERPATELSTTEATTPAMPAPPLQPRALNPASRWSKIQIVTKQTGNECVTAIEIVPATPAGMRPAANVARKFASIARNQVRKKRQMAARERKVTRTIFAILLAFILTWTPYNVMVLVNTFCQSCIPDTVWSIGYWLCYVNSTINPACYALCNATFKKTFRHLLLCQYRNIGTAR
Test: mAChR M4 cell-based functional assay (calcium flux, antagonist mode)
Conditions: for remaining activity at 30 µM: % ACh maximum at 30 μM, read-out: Emin; for IC50: M4/Gqi5/CHO-K1 cells, concentration-dependent decrease of the EC80 acetylcholine response
Description: Human or rat M4 cDNA, along with the chimeric G protein Gqi5, were transfected into Chinese hamster ovary (CHO-K1) cells purchased from the American Type Culture Collection using Lipofectamine2000. M4/Gqi5/CHO cells were grown in Ham's F-12 medium containing 10% heat-inactivated fetal bovine serum (FBS), 20 mM HEPES, 500 μg/mL G418 sulfate, and 200 μg/mL Hygromycin B.
For high throughput measurement of agonist-evoked increases in intracellular calcium, CHO-K1 cells stably expressing muscarinic receptors were plated in growth medium lacking G418 and hygromycin at 15,000 cells/20 μL/well in Greiner 384-well black-walled, tissue culture (TC)-treated, clear-bottom plates (VWR). Cells were incubated overnight at 37° C. and 5% CO2. The next day, cells were washed using an ELX 405 (BioTek) with assay buffer; the final volume was then aspirated to 20 μL, Next, 20 μL of a 2.3 μM stock of Fluo-4/acetoxymethyl ester (Invitrogen, Carlsbad, Calif.), prepared as a 2.3 μM stock in DMSO, mixed in a 1:1 ratio with 10% (w/v) Pluronic F-127 and diluted in assay buffer, was added to the wells and the cell plates were incubated for 50 min at 37° C. and 5% CO2. Dye was removed by washing with the ELX 405 and the final volume was aspirated to […]. Compound master plates were formatted in a 10 point concentration-response curve (CRC) format (1:3 dilutions) in 100% DMSO with a starting concentration of 10 or 1 mM using a BRAVO liquid handler (Agilent). Test compound CRCs were then transferred to daughter plates (240 nL) using the Echo acoustic plate reformatter (Labcyte, Sunnyvale, Calif.) and then diluted into assay buffer (40 μL) to a 2× stock using a Thermo Fisher Combi (Thermo Fisher Scientific, Waltham, Mass.).
Calcium flux was measured using the Functional Drug Screening System (FDSS) 6000 or 7000 (Hamamatsu Corporation, Tokyo, Japan) as an increase in the fluorescent static ratio. Compounds were applied to cells (20 μL, 2×) using the automated system of the FDSS at 2 seconds into the protocol and the data were collected at 1 Hz. At 143 s, 10 μL of an EC20 concentration of the muscarinic receptor agonist acetylcholine was added (5×), followed by the addition of 12 μL of an EC80 concentration of acetylcholine at the 268 s time point (5×). Agonist activity was analyzed as a concentration-dependent increase in calcium mobilization upon compound addition. Positive allosteric modulator activity was analyzed as a concentration-dependent increase in the EC20 acetylcholine response. Antagonist activity was analyzed as a concentration-dependent decrease in the EC80 acetylcholine response; for the purposes of the tables herein, an […] (inhibitory concentration 50) was calculated as a concentration-dependent decrease of the response elicited by an EC80 concentration of acetylcholine. Concentration-response curves were generated using a four-parameter logistical equation in XLFit curve fitting software (IDBS, Bridgewater, N.J.) for Excel (Microsoft, Redmond, Wash.) or Prism (GraphPad Software, Inc., San Diego, Calif.) or the Dotmatics software platform (Dotmatics, Bishop's Stortford, UK).
Compounds were synthesized as described above. Activity (IC50 and Emin) was determined in the mAChR M4 cell-based functional assay as described above and the data are shown in Table 4.

Compound	remaining activity at 30 µM [%]	IC50 [nM]
Cc1cccnc1CN1CCC2(CC1)CC(Nc1ccc(-c3cn(C)nc3C)nn1)C2 [Compound 7, N-[6-(1,3-dimethyipyrazol-4-yl)pyridazin-3-yl]-7-[(3-methyl-2-pyridyl)methyl]-7-azaspiro[3.5]nonan-2-amine]	9.14	1740
Fc1ccc(Cl)c(-c2ccc(OCC3CC4(CCN(Cc5ccccc5)CC4)C3)nn2)c1 [Compound 65, 7-benzyl-2-[[6-(2-chIoro-5-fluoro-phenyl)pyridazin-3-yl]oxymethyl]-7-azaspiro[3.5]nonane]	6.28	2660
Cc1nn(C)cc1-c1ccc(OC2CC3(CCN(CC4CCSCC4)CC3)C2)nn1 [Compound 29, 2-[6-(1,3-dimethylpyrazol-4-yl)pyridazin-3-yl]oxy-7-(tetrahydrothiopyran-4-ylmethyl)-7-azaspiro[3.5]nonane]	5.29	1170
Cc1cccnc1CN1CCC2(CC1)CC(Oc1ccc(-c3c(C)cnn3C)nn1)C2 [Compound 38, 2-[6-(2,4-dimethylpyrazol-3-yl)pyridazin-3-yl]oxy-7-[(3-methyl-2-pyridyl)methyl]-7-azaspiro[3.5]nonane]	14.8	7720
Fc1ccc(Cl)c(-c2ccc(NCC3CC4(CCN(CC5CCCCC5)CC4)C3)nn2)c1 [Compound 42, 6-(2-chloro-5-fluoro-phenyl)-N-[[7-(cyclohexylmethyl)-7-azaspiro[3.5]nonan-2-yl]methyl]pyridazin-3-amine]	6.27	3140
Cc1cnn(C)c1-c1ccc(OC2CC3(CCN(CC4CCSCC4)CC3)C2)nn1 [Compound 36, 2-[6-(2,4-dimethylpyrazol-3-yl)pyridazin-3-yl]oxy-7-(tetrahydrothiopyran-4-ylmethyl)-7-azaspiro[3.5]nonane]	4.76	1210
Fc1ccc(Cl)c(-c2ccc(NCC3CC4(CCN(Cc5ccccn5)CC4)C3)nn2)c1 [Compound 47, 6-(2-chloro-5-fluoro-phenyl)-N-[[7-(2-pyridylmethyl)-7-azaspiro[3.5]nonan-2-yl]methyl]pyridazin-3-amine]	5.52	1910
Cc1cnn(C)c1-c1ccc(OC2CC3(CCN(Cc4ccccc4)CC3)C2)nn1 [Compound 37, 7-benzyl-2-[6-(2,4-dimethylpyrazol-3-yl)pyridazin-3-yl]oxy-7-azaspiro[3.5]nonane]	10.8	3450
Fc1ccc(Cl)c(-c2ccc(OCC3CC4(CCN(CC5CCCOC5)CC4)C3)nn2)c1 (centres unmarked) [Compound 63, 2-[[6-(2-chloro-5-fluoro-phenyl)pyridazin-3-yl]oxymethyl]-7-(tetrahydropyran-3-ylmethyl)-7-azaspiro[3.5]nonane]	7.8	2130
Fc1ccc(Cl)c(-c2ccc(OCC3CC4(CCN(Cc5ccccn5)CC4)C3)nn2)c1 [Compound 66, 2-[[6-(2-chloro-5-fluoro-phenyl)pyridazin-3-yl]oxymethyl]-7-(2-pyridylmethyl)-7-azaspiro[3.5]nonane]	8.3	2740
Cc1nn(C)cc1-c1ccc(NCC2CC3(CCN(Cc4ccccc4F)CC3)C2)nn1 [Compound 54, 6-(1,3-dimethylpyrazol-4-yl)-N-[[7-[(2-fluorophenyl)methyl]-7-azaspiro[3.5]nonan-2-yl]methyl]pyridazin-3-amine]	6.27	1120

Compounds with a lower IC50, results first:

remaining activity at 30 µM [%]	IC50 [nM]	Compound
3.01	330	CC(C)(C)CCN1CCC2(CC1)CC(Oc1ccc(-c3cc(F)ccc3Cl)nn1)C2 [Compound 15, 2-[6-(2-Chloro-5-fluoro-phenyl)pyridazin-3-yl]oxy-7-(3,3-dimethylbutyl)-7-azaspiro[3.5]nonane]
9.19	780	Fc1ccc(Cl)c(-c2ccc(NCC3CC4(CCN(Cc5ccccc5F)CC4)C3)nn2)c1 [Compound 46, 6-(2-chloro-5-fluoro-phenyl)-N-[[7-[(2-fluorophenyl)methyl]-7-azaspiro[3.5]nonan-2-yl]methyl]pyridazin-3-amine]
2.63	240	Fc1ccc(Cl)c(-c2ccc(NCC3CC4(CCN(CC5CC6C=CC5C6)CC4)C3)nn2)c1 (centres unmarked) [Compound 40, N-[[7-(5-bicyclo[2.2.1]hept-2-enylmethyl)-7-azaspiro[3.5]nonan-2-yl]methyl]-6-(2-chloro-5-fluoro-phenyl)pyridazin-3-amine]
3.22	530	Fc1ccc(Cl)c(-c2ccc(OC3CC4(CCN(CC5CCSCC5)CC4)C3)nn2)c1 [Compound 21, 2-[6-(2-chloro-5-fluoro-phenyl)pyridazin-3-yl]oxy-7-(tetrahydrothiopyran-4-ylmethyl)-7-azaspiro[3.5]nonane]
2.85	200	Cc1nn(C)cc1-c1ccc(OC2CC3(CCN(CCC(C)(C)C)CC3)C2)nn1 [Compound 13, 7-(3,3-Dimethylbutyl)-2-[6-(1,3-dimethylpyrazol-4-yl)pyridazin-3-yl]oxy-7-azaspiro[3.5]nonane]
5.41	180	Cc1nn(C)cc1-c1ccc(NCC2CC3(CCN(CC4CC5C=CC4C5)CC3)C2)nn1 (centres unmarked) [Compound 59, N-[[7-(5-bicyclo[2.2.1]hept-2-enylmethyl)-7-azaspiro[3.5]nonan-2-yl]methyl]-6-(1,3-dimethylpyrazol-4-yl)pyridazin-3-amine]
3.36	900	Cc1cccnc1CN1CCC2(CC1)CC(Oc1ccc(-c3cc(F)ccc3Cl)nn1)C2 [Compound 23, 2-[6-(2-chloro-5-fluoro-phenyl)pyridazin-3-yl]oxy-7-[(3-methyl-2-pyridyl)methyl]-7-azaspiro[3.5]nonane]
2.94	760	Fc1ccc(Cl)c(-c2ccc(OC3CC4(CCN(CC5CCCCC5)CC4)C3)nn2)c1 [Compound 18, 2-[6-(2-chloro-5-fluoro-phenyl)pyridazin-3-yl]oxy-7-(cyclohexylmethyl)-7-azaspiro[3.5]nonane]
3.47	300	CC(C)(C)CCN1CCC2(CC1)CC(COc1ccc(-c3cc(F)ccc3Cl)nn1)C2 [Compound 60, 2-[[6-(2-Chloro-5-fluoro-phenyl)pyridazin-3-yl]oxymethyl]-7-(3,3-dimethylbutyl)-7-azaspiro[3.5]nonane]
3.64	300	Cc1nn(C)cc1-c1ccc(NCC2CC3(CCN(CC45CC6CC(CC(C6)C4)C5)CC3)C2)nn1 [Compound 57, N-[[7-(1-adamantylmethyl)-7-azaspiro[3.5]nonan-2-yl]methyl]-6-(1,3-dimethylpyrazol-4-yl)pyridazin-3-amine]
3.1	210	Cc1nn(C)cc1-c1ccc(OC2CC3(CCN(CC(C)C(C)(C)C)CC3)C2)nn1 (centres unmarked) [Compound 25, 2-[6-(1,3-dimethylpyrazol-4-yl)pyridazin-3-yl]oxy-7-(2,3,3-triniethylbutyl)-7-azaspiro[3.5]nonane]
